From patent US10836767B2, “Serum stable pro-coelenterazine analogues” (PROMEGA CORPORATION, priority 2017, dated 2020)
“Also recorded” adds a separate entry of the source. Each block holds one molecule with its values, some of them ahead of it.

Assays:
[1] = Haze (solubility) observation of medium + test compound solutions; type: physicochemical; details: for concentration above which haze was observed: medium + compound solution
Experimental: (§1) Day 3: Live cell assay. Stocks of tested compounds in DMSO (500×) were prepared by serial dilution of 50 mM stock with DMSO. The Medium+/− porcine liver esterase (PLE) at room temperature was prepared by adding 1 and 0.333 ug/ml PLE in CO2 IM+10% FBS. CO2 IM+10% FBS with no added PLE was also prepared. Next, medium+test compound solutions (room temperature) was prepared by the steps of: adding 2 mL of respective medium per channel, adding 4 μL respective tested compound stock per channel and mixing by pipetting up/down 10-15×. The final DMSO concentration was 0.2% v/v. The DMSO solution was dropped to the bottom of the channel, showing precipitation for the higher concentrations. After pipetting up/down, solutions with WZ-0324 at a final concentration of ≥50 uM were noticeably hazy (100 uM>75 uM>50 uM), in some cases even after extended incubation at 37° C. The Solutions were allowed to stand at room temperature for 15-20 minutes prior to addition to cells (P1->P2->P3).

[2] = system: CMV promoter-NanoLuc® gene transfected HEK293 cells; assay: Live cell reporter gene assay, luminescent signal decay over time with/without porcine liver esterase (PLE); type: cell-based; details: DMEM, 10% FBS
Experimental: The synthesized pro-coelenterazine or pro-furimazine compounds were evaluated in a live cell reporter gene assay. As shown in FIGS. 3A-C, the luminescent signal decays were monitored over time in HEK293 cells in DMEM media with 10% FBS transfected with 10 ng/well of CMV promoter-NanoLuc® gene with/without adding exogenous esterase porcine liver esterase (PLE) with three representative pro-coelenterazine analogues, e.g. serum instable compound WZ-0308, traditional live cell pro-substrate PBI-4377, and disclosed serum stable compound WZ-0324. The evaluations were performed by the following protocol.
Day 1: Plate cells. HEK293 cells were grown in complete medium (DMEM+10% FBS+1× Non-Essential Amino Acids (NEAA)). The cells were harvested at passasge 6 (˜95% confluent), by a procedure of: washing with DPBS, treating the cells with TrypLE Express until cells dislodged, adding 4× volumes of complete medium, pelleting at 188×g for 2 minutes, and suspending the cells in complete medium to 7.35E4 cells/mL. The cells were plated 100 μL per well into the inner 60 wells of 96-well plates (7,350 cells per well): 100 μL DPBS in the 36 outside wells and 100 μL DPBS between wells. The cells were than incubated overnight at 37° C., 5% CO2.
Day 2: Transfection. Two two master mixes (MM) were made: MM#1: 1.63 μL prep #1; 9.5 μL prep #3; 1.9 mL OM1; and MM#2: 2.9 uL prep #2; 9.5 μL prep #3; 1.9 mL OM1. 35.6 μl FuGENE HD was added to each MM and mixed by pipetting up/down. The mixture was incubated for ˜10 minutes at room temperature. Next, 8 μL of the mixture was added per well using single channel repeater pipette; n=3 per condition. The mixture was then incubated for ˜24 hours at 37° C., 5% CO2.
as §1
The medium was aspirated and replaced with 200 μL/well of respective medium+tested compound solution. DPBS was added to 200 μL total to outside 36× wells. The system was quickly moved to respective GMM+ to start RLU measurements at 37° C. The measuments were carried out under the following conditions: 1 second integration time; RLU measurement every 15 minutes; the lid was removed for the overnight RLU measurements; and initial RLU measurement would be <37° C. owing to the addition of room temperature medium and cooling of the plate.
Data analysis: average RLU plotted for n=3; error represented as standard deviation was included in each imbedded Prism file, but not shown for the sake of clarity in interpreting the curves.

[3] = Stability test by HPLC in DMSO or DMEM media with or without fetal bovine serum; type: in vitro ADME; details: 40 μM; DMEM media with 10% FBS; 10 hours
Experimental: “Serum stability” refers to the stability of a compound in media or culture that includes serum. The serum as used herein may include, but is not limited to, fetal bovine serum (FBS). Serum stability of a compound as used herein generally may be characterized by the extent of degradation of such compound in a serum over a period of time. For example, a compound may degrade by less than 25%, less than 20%, less then 15%, or even less than 10% in FBS over a period of 24 hours or longer. For live cell assays, serum (such as FBS) is a component to maintain cell health. The degree of degradation of the disclosed compounds or the other pro-coelenterazine analogues in DMSO control, or DMEM media with/without FBS, can be monitored by HPLC using specific elution solvent/buffer (e.g. 0.1% TFA and acetonitrile) under the same condition at certain time of points. The percentage of purity can be calculated by the peak area of the tested compound divided by the total peak areas including tested compound and degradation compounds at their corresponding retention time at certain absorbance wavelength (e.g. 260 nm) at certain time point in media with/without FBS. The changes of purity for a given compound over time indicate the degree of instability of the compound in media/culture with/without serum.
The tested compounds were dissolved in DMSO stock at a concentration of 20 mM. […]

[4] = system: HEK 293 cells transiently transfected with SmBiT-PRKACA and LgBiT-PRKAR2A; assay: Live cell assay, luminescent signal decay over time in HEK293 cells expressing the PKA NanoBiT pair; type: cell-based; details: DMEM, 4% FBS; for strength of signal relative to PBI-4377: concentration above 20 uM; for luminescent signal decay: almost independent of concentration
Experimental: Compounds WZ-0429, WZ-0439, WZ-0454, WZ-0441, WZ-0451. WZ-0416, WZ-0420, WZ-0461 and WZ-0419 were tested in HEK 293 cells transiently transfected plasmid DNA constructs for SmBiT-PRKACA and LgBiT-PRKAR2A expressed via the HSV-TK promoter in DMEM media with 4% FBS, and the luminescent signal decays were monitored over time. […] In contrast, the serum instable compounds, WZ-0429. […] The evaluations of compounds WZ-0429, WZ-0439, WZ-0454, WZ-0441, WZ-0451. WZ-0416, WZ-0420, WZ-0461 and WZ-0419 were performed by the following protocol.
Day 1, plate cells. HEK293 cells were grow in complete medium [DMEM+10% FBS+1× NEAA]. Cells were plated at approximately 10,000 cells per well (100 μL) in 96-well plates (Corning 3917).
Day 2, transient transfection. Plasmid DNA constructs for SmBiT-PRKACA and LgBiT-PRKAR2A expressed via the HSV-TK promoter were diluted to 6.25 ng/μL in Opti-MEM® I and FuGENE HD was added at a 3:1 lipid:DNA ratio. After a 5-10 minute incubation at room temperature, 8 μl of lipid:DNA solution was added per well, and cells were incubated in a 37° C., 5% CO2 incubator overnight.
Day 3, live cell assay. Compounds were dissolved to 50 mM final in DMSO. Compounds were diluted in DMSO to give 33.3, 16.7 and 6.7 mM stocks. DMSO stock solutions were diluted 667-fold in Opti-MEM® I to give 1× solutions. Complete medium was aspirated and replaced with the respective 1× solution containing 75, 50, 25 or 10 uM of the respective compounds (0.15% v/v DMSO final), such as WZ-0429, WZ-0439, WZ-0454, WZ-0441WZ-0451, WZ-0416, WZ-0420 and WZ-0419, but containing 40, 30, 20 or 10 μM as an instead for compound WZ-0461. Luminescence was measured on a GloMax Multi Plus luminometer every 15 minutes at 37° C. using a 1 second integration time.

[5] = system: DLD-1 cells; assay: Complementary NanoLuc fragment-fused Annexin V real-time apoptosis assay; type: cell-based; details: 10,000 DLD-1 cells/well; rhTRAIL; t=3.5, 7, 24 and 30 hr
Source text: Small and large fragments of luciferase have been engineered as fusion proteins linked to annexin V for detecting of apoptosis in real-time using a plate-reading luminometer. The individual annexin V-luciferase fragment fusion pairs have low intrinsic affinity for each other, and thus produce no or low luminescence in culture medium or in the presence of non-apoptotic cells; but, when the annexin V-luciferase fragment fusion proteins bind in close proximity to phosphatidylserine exposed on the surface of apoptotic cells, the luciferase fragments reconstitute an active enzyme and generate a luminescent signal.
General protocol for complementary NanoLuc® fragment-fused-Annexin V binding: DLD-1 cells (10,000/well; 100 μL) were plated in medium+10% FBS and 2× CellTox Green in a solid white 96-well plate. After the cells were allowed to attach, 50 μL of recombinant human TRAIL at final concentration 500 ng/ml in medium+10% FBS fortified with 1 mM CaCl2 was added. […] The plate was incubated at 37° C./5% CO2 in a tissue culture incubator, and luminescence and fluorescence (Ex 485/Em 520) was measured kinetically at the indicated time points. […] The kinetically preceded increases in fluorescence of Cytotox Green indicate cell death. […]

final concentration at which solutions were noticeably hazy ([1]; CO2 IM + 10% FBS, 0.2% v/v DMSO, after pipetting up/down): ≥ 50 µM
concentration above which haze was observed [1]: above 70 μM
concentration above which haze was observed ([1]; listed as WZ-324): > 70 µM
SMILES: COCCOCCOCC(C)(C)C(=O)OCOc1c(Cc2ccco2)nc2c(Cc3ccccc3)nc(-c3ccccc3)cn12 [WZ-0324, ((8-benzyl-2-(furan-2-ylmethyl)-6-phenylimidazo[1,2-a]pyrazin-3-yl)oxy)methyl 3-(2-(2-methoxyethoxy)ethoxy)-2,2-dimethylpropanoate]
luminescence after addition of exogenous PLE esterase versus without PLE ([2]; PLE added): significantly enhanced; also recorded: significantly higher luminescence
signal in the absence of exogenous PLE esterase, versus PBI-4377 ([2]; no PLE): higher signal

degradation (HPLC purity change) [3]: approximately 50%
SMILES: CC(C)C(=O)OCOc1c(Cc2ccco2)nc2c(Cc3ccccc3)nc(-c3ccccc3)cn12 [WZ-0415]

SMILES: COC(C)(C)C(=O)OCOc1c(Cc2ccco2)nc2c(Cc3ccccc3)nc(-c3ccccc3)cn12 [WZ-0451, ((8-benzyl-2-(furan-2-ylmethyl)-6-phenylimidazo[1,2-a]pyrazin-3-yl)oxy)methyl 2-methoxy-2-methylpropanoate]
strength of signal relative to PBI-4377 [4]: 10 times

SMILES: C=CCOC(=O)N1CCC(C(=O)OCOc2c(Cc3ccco3)nc3c(Cc4ccccc4)nc(-c4ccccc4)cn23)C1 (stereo not drawn) [WZ-0441]
luminescent signal decay [4]: rapid signal decay

SMILES: O=C(OCOc1c(Cc2ccco2)nc2c(Cc3ccccc3)nc(-c3ccccc3)cn12)C1CCOC1 (stereo not drawn) [WZ-0439]
luminescent signal decay [4]: rapid signal decay

SMILES: O=C(OCOc1c(Cc2ccco2)nc2c(Cc3ccccc3)nc(-c3ccccc3)cn12)c1ccco1 [WZ-0420, ((8-benzyl-2-(furan-2-ylmethyl)-6-phenylimidazo[1,2-a]pyrazin-3-yl)oxy)methyl furan-2-carboxylate]
strength of signal relative to PBI-4377 [4]: 10 times

SMILES: O=C(OCOc1c(Cc2ccco2)nc2c(Cc3ccccc3)nc(-c3ccccc3)cn12)c1ccoc1 [WZ-0461, ((8-benzyl-2-(furan-2-ylmethyl)-6-phenylimidazo[1,2-a]pyrazin-3-yl)oxy)methyl furan-3-carboxylate]
signal strength (brightness) relative to PBI-4377 [4]: comparable or slightly better

SMILES: COC(OC)C(=O)OCOc1c(Cc2ccco2)nc2c(Cc3ccccc3)nc(-c3ccccc3)cn12 [WZ-0454]
luminescent signal decay [4]: rapid signal decay

SMILES: O=C(OCOc1c(Cc2ccco2)nc2c(Cc3ccccc3)nc(-c3ccccc3)cn12)C1CCCO1 (stereo not drawn) [WZ-0429]
luminescent signal decay [4]: rapid signal decay

SMILES: O=C(OCOc1c(Cc2ccco2)nc2c(Cc3ccccc3)nc(-c3ccccc3)cn12)c1ccccc1 [WZ-0416, ((8-benzyl-2-(furan-2-ylmethyl)-6-phenylimidazo[1,2-a]pyrazin-3-yl)oxy)methyl benzoate]
signal strength (brightness) relative to PBI-4377 [4]: comparable or slightly better

SMILES: COCCOCCOCCOCC(C)(C)C(=O)OCOc1c(Cc2ccco2)nc2c(Cc3ccccc3)nc(-c3ccccc3)cn12 [WZ-0336, ((8-benzyl-2-(furan-2-ylmethyl)-6-phenylimidazo[1,2-a]pyrazin-3-yl)oxy)methyl 13,13-dimethyl-2,5,8,11-tetraoxatetradecan-14-oate]
luminescence response to TRAIL with the compound as pro-substrate [5]: dose-dependent increases in luminescence

SMILES: CC(=O)OCOc1c(Cc2ccco2)nc2c(Cc3ccccc3)nc(-c3ccccc3)cn12 [WZ-0308]
signal at the initial time point [2]: highest signal
luminescent signal decay ([2]; FIG. 3A): rapid signal decay
period of rapid luminescent signal decay ([2]; even without exogenous PLE): 2 to 3 h
